The test deals with T1, AMP deaminase 1 (Rattus norvegicus, UniProt P10759).
T1 sequence (P10759 whole entry): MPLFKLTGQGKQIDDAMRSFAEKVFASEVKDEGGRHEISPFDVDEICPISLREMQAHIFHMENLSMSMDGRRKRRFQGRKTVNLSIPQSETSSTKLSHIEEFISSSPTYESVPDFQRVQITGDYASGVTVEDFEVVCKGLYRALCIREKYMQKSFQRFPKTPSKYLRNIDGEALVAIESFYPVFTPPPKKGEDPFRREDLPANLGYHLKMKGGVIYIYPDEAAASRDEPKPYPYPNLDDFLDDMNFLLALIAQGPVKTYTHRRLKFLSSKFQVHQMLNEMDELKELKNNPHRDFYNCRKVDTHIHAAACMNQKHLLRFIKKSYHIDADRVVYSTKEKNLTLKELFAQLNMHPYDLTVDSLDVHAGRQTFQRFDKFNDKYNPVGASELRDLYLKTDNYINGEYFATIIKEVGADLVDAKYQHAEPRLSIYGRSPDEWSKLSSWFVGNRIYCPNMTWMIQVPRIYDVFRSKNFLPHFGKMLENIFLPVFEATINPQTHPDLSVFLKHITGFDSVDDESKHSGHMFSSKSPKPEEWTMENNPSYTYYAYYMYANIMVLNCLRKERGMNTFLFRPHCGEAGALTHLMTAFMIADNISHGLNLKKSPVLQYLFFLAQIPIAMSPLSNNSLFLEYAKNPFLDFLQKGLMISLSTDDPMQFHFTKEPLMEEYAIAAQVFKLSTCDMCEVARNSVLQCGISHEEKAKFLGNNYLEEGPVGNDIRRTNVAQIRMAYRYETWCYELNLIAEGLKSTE
The test is described as follows: AMPD Enzymatic Activity Assay. The following applies: pH 7.4.

What is called IC50 is the midpoint of a concentration-inhibition curve. A lower IC50 goes with higher potency. `C[C@@H](NCc1ccc(-c2ccc(C(=O)O)cn2)cc1)c1cccc2ccncc12` [6-[4-({[(1R)-1-(isoquinolin-8-yl)ethyl]amino}methyl)phenyl]pyridine-3-carboxylic acid (Compound 2)] gave an IC50 of 5800 nM.
Next, `C[C@H](NCc1ccc(-c2ccc(C(=O)O)cn2)cc1)c1cccc2ccncc12` [6-[4-({[(1S)-1-(isoquinolin-8-yl)ethyl]amino}methyl)phenyl]pyridine-3-carboxylic acid (Compound 3)]: 27 nM.

The values are drawn from BindingDB's records for doi:10.1016/j.chembiol.2014.09.011 (Astrazeneca R&D, 2014).
